The record followed here is US11591604B2, “Gene expression in Bacteroides” (Massachusetts Institute of Technology, priority 2015, dated 2023).

The series deals with NanoLuc. As to the kind of experiment: NanoLuc luciferase reporter expression from constitutive promoters and RBSs integrated with pNBU2. As to conditions: for Average Luminescence (RLU/CFU): RBS combined with promoter PBT1311, NanoLuc reporter, three biological replicates; for Expression Level (RLU/CFU): set of 8 RBSs, under control of PBT1311, NanoLuc reporter. It counts as cell-based, B. thetaiotaomicron. From the text: FIGS. 1A-1G. Genetic parts to control expression in B. thetaiotaomicron. (FIG. 1A) The ranges of gene expression are shown for the different gene regulation systems provided herein. (FIG. 1B) IntN2 catalyzes stable integration of pNBU2-based expression constructs into one of two attBT2 sites in the B. thetaiotaomicron genome. The two attBT2 sites (attBT2-1 at nucleotide (nt) 6,217,227 and attBT2-2 at nt 6,138,320) are in the 3′ ends of tRNA^Ser genes (BT_t71 and BT_t70, respectively). (FIG. 1C) Constitutive promoters and ribosome binding sites for the construction of gene expression libraries. The putative −33 and −7 regions of the PBT1311 promoter, the Shine-Delgarno sequence, and the start codon are indicated by black boxes. Numbers below the black boxes represent nucleotide locations relative the PBT1311 transcription start site. The 26 nt sequences introduced in the PAM promoters are shown (see also FIGS. 6A-6B). Numbers at the edges of the boxes indicate the PBT1311 nucleotides replaced or the insertion site within the promoter. The location of residues randomized in the rpiL* RBS library are indicated with gray arrows (for library A: nt −14, −13, −12; for library B: nt −21, −18, −15; and for library C: nt −17, −16, −11; nt numbering is relative to the translation start site). (FIG. 1D) Activity was measured for a set of constitutive promoters and their cognate RBSs. Furthermore, a set of constitutive promoters (PBT1311, PAM1, PAM2, PAM3, PAM4) was combined with RBSs of varying strengths. Gene expression was measured using a luciferase reporter (NanoLuc). (FIG. 1E) Three large RBS libraries were constructed and combined with promoter PBT1311 to span 10^3-fold in gene expression. For reference, the parent rpiL* RBS is indicated with a black arrow. For D and E, error bars represent the standard deviation of three independent biological replicates made on separate days. (FIG. 1F) The strength of each RBS was compared to the predicted free energy of folding for the mRNA (ΔGfold,). (FIG. 1G) Strong (SEQ ID NO: 210) and weak (SEQ ID NO: 211) consensus sequences for the rpiL* −21 to −11 RBS region targeted by mutagenesis (residue locations are stated relative to the translation start site) are provided. Frequency logos were generated for the 11 strongest and 11 weakest RBSs by comparing the frequency of each nucleotide at each position in that group with the frequency of that nucleotide in that position in the full library. Position −20 and −19 were not randomized and are thus are not shown in the frequency logos.
All genetic parts in this study were characterized using the integration vector pNBU2 to ensure genetic stability of the constructs (FIG. 1B). The pNBU2 plasmid encodes the intN2 tyrosine integrase, which mediates sequence-specific recombination between the attN site of pNBU2 and one of two attBT sites located in the 3′ ends of the two tRNA^Ser genes, BT_t70 and BT_t71, on the B. thetaiotaomicron chromosome (FIG. 1B). Insertion of the pNBU2 plasmid inactivates the tRNA^Ser gene, and simultaneous insertion into both BT_t70 and BT_t71 is unlikely due to the essentiality of tRNA^Ser. pNBU2-based vectors have been used for single-copy complementation in B. thetaiotaomicron in in vitro studies (Koropatkin N M et al. Nat. Rev. Microbiol. 10:323-35, 2012) and in vivo mouse models (Martens E C et al. Cell Host Microbe 4:447-57, 2008).
B. thetaiotaomicron genetic parts were characterized with NanoLuc luciferase (Hall M P et al. ACS Chem. Biol. 7:1848-1857, 2012), which is a small (19 kDa) modified shrimp luciferase. Efforts to use members of the green fluorescent protein family and a FMN-based fluorescent reporter were not successful. NanoLuc oxidizes the exogenously-added substrate furimazine to produce glow-type bioluminescence (Emax=460 nm) with a signal half-life of 2 hr. […]
Background: A reporter such as luciferase makes a cellular process visible.

On to “C7: RBS, SEQ ID NO: 20 (DNA TCCCGCATTTTAAAATAAAATAAATTATTAATTTACTTAAACGAAT; chemistry not fully specified)”, for which the “Average Luminescence (RLU/CFU)” value came to 0.03249 RLU/CFU. The same measure, in the same setting: with “C10: RBS, SEQ ID NO: 31 (DNA TCCCGCATTTTAAAATAAAATAAATTATTATTTTAATTAAACGAAT; chemistry not fully specified)” the figure was 0.02583 RLU/CFU; with “C40: RBS, SEQ ID NO: 115 (DNA TCCCGCATTTTAAAATAAAATAAATTATTCCTTTACTTAAACGAAT; chemistry not fully specified)”, 0.003759 RLU/CFU. On the same count and under the same terms, under “C9: RBS, SEQ ID NO: 23 (DNA TCCCGCATTTTAAAATAAAATAAATTATTGCTTTAATTAAACGAAT; chemistry not fully specified)” stands 0.02988 RLU/CFU; under “B10: RBS, SEQ ID NO: 12 (DNA TCCCGCATTTTAAAATAAAATAAATTATATATTTAATTAAACGAAT; chemistry not fully specified)”, 0.04421 RLU/CFU. In the case of “A16: RBS, SEQ ID NO: 65 (DNA TCCCGCATTTTAAAATAAAATAAATTATTTATTTACTTAAACGAAT; chemistry not fully specified)”, the “Average Luminescence (RLU/CFU)” value was determined as 0.01329 RLU/CFU.

On to “C48: RBS, SEQ ID NO: 128 (DNA TCCCGCATTTTAAAATAAAATAAATTATTCCTTTAGTTAAACGAAT; chemistry not fully specified)”, for which the “Average Luminescence (RLU/CFU)” value is on record as 0.001758 RLU/CFU. Still for that read-out and setting: with “A6: RBS, SEQ ID NO: 33 (DNA TCCCGCATTTTAAAATAAAATAAATTATTTCTTTAATTAAACGAAT; chemistry not fully specified)” the figure was 0.0256 RLU/CFU; with “B2: RBS, SEQ ID NO: 2 (DNA TCCCGCATTTTAAAATAAAATAAATGATATAATTAATTAAACGAAT; chemistry not fully specified)”, 0.06325 RLU/CFU.

For the substance “B12: RBS, SEQ ID NO: 22 (DNA TCCCGCATTTTAAAATAAAATAAATAATATATTTAATTAAACGAAT; chemistry not fully specified)”, the “Average Luminescence (RLU/CFU)” value is 0.03108 RLU/CFU. Regarding “rpiL*-C39: RBS, SEQ ID NO: 176; sequence and value match B39 of Table 1 (DNA TCCCGCATTTTAAAATAAAATAAATCATCTAGTTAATTAAACGAATATG; chemistry not fully specified)”, the “Expression Level (RLU/CFU)” value was 1.26E-03 RLU/CFU. “A14: RBS, SEQ ID NO: 59 (DNA TCCCGCATTTTAAAATAAAATAAATTATTTCTTTATTTAAACGAAT; chemistry not fully specified)”: the “Average Luminescence (RLU/CFU)” value turned out to be 0.01475 RLU/CFU. The same measure, in the same setting: with “A8: RBS, SEQ ID NO: 44 (DNA TCCCGCATTTTAAAATAAAATAAATTATTAGTTTATTTAAACGAAT; chemistry not fully specified)” the figure was 0.02026 RLU/CFU. On to “A45: RBS, SEQ ID NO: 137 (DNA TCCCGCATTTTAAAATAAAATAAATTATTCGTTTACTTAAACGAAT; chemistry not fully specified)”, for which the “Average Luminescence (RLU/CFU)” value is on record as 0.0005331 RLU/CFU. On to “A15: RBS, SEQ ID NO: 64 (DNA TCCCGCATTTTAAAATAAAATAAATTATTATTTTACTTAAACGAAT; chemistry not fully specified)”, for which the “Average Luminescence (RLU/CFU)” value was 0.01335 RLU/CFU. The same measure, in the same setting: with “A3: RBS, SEQ ID NO: 24 (DNA TCCCGCATTTTAAAATAAAATAAATTATTAGTTTAGTTAAACGAAT; chemistry not fully specified)” the figure was 0.02867 RLU/CFU.

With “C43: RBS, SEQ ID NO: 120 (DNA TCCCGCATTTTAAAATAAAATAAATTATTTCTTTAGTTAAACGAAT; chemistry not fully specified)”, the “Average Luminescence (RLU/CFU)” value was found to be 0.00264 RLU/CFU. Same read-out and setting: with “B9: RBS, SEQ ID NO: 10 (DNA TCCCGCATTTTAAAATAAAATAAATTATCTAATTAATTAAACGAAT; chemistry not fully specified)” the figure was 0.04634 RLU/CFU. Same read-out and setting: with “C49: RBS, SEQ ID NO: 129 (DNA TCCCGCATTTTAAAATAAAATAAATTATTGTTTTATTTAAACGAAT; chemistry not fully specified)” the figure was 0.001598 RLU/CFU; with “B18: RBS, SEQ ID NO: 35 (DNA TCCCGCATTTTAAAATAAAATAAATAATGTAGTTAATTAAACGAAT; chemistry not fully specified)”, 0.02291 RLU/CFU; with “A26: RBS, SEQ ID NO: 87 (DNA TCCCGCATTTTAAAATAAAATAAATTATTACTTTATTTAAACGAAT; chemistry not fully specified)”, 0.008113 RLU/CFU. Still for that read-out and setting: under “B34: RBS, SEQ ID NO: 98 (DNA TCCCGCATTTTAAAATAAAATAAATCATCTATTTAATTAAACGAAT; chemistry not fully specified)” stands 0.00584 RLU/CFU; under “B40: RBS, SEQ ID NO: 134 (DNA TCCCGCATTTTAAAATAAAATAAATCATGTAGTTAATTAAACGAAT; chemistry not fully specified)”, 0.001108 RLU/CFU.

For the substance “B30: RBS, SEQ ID NO: 82 (DNA TCCCGCATTTTAAAATAAAATAAATGATGTATTTAATTAAACGAAT; chemistry not fully specified)”, the “Average Luminescence (RLU/CFU)” value stood at 0.009276 RLU/CFU.

For “A42: RBS, SEQ ID NO: 130 (DNA TCCCGCATTTTAAAATAAAATAAATTATTGGTTTACTTAAACGAAT; chemistry not fully specified)”, the “Average Luminescence (RLU/CFU)” value is recorded as 0.001478 RLU/CFU. As to “C56: RBS, SEQ ID NO: 143 (DNA TCCCGCATTTTAAAATAAAATAAATTATTCGTTTAGTTAAACGAAT; chemistry not fully specified)”, the “Average Luminescence (RLU/CFU)” value turned out to be 2.2125E-05 RLU/CFU and the “Expression Level (RLU/CFU)” value came out at 2.21E-05 RLU/CFU.

For “A20: RBS, SEQ ID NO: 71 (DNA TCCCGCATTTTAAAATAAAATAAATTATTTATTTATTTAAACGAAT; chemistry not fully specified)”, the “Average Luminescence (RLU/CFU)” value was 0.01179 RLU/CFU. Same read-out and setting: with “C15: RBS, SEQ ID NO: 41 (DNA TCCCGCATTTTAAAATAAAATAAATTATTTCTTTAATTAAACGAAT; chemistry not fully specified)” the figure was 0.02056 RLU/CFU. On the same count and under the same terms, under “B15: RBS, SEQ ID NO: 27 (DNA TCCCGCATTTTAAAATAAAATAAATGATTTACTTAATTAAACGAAT; chemistry not fully specified)” stands 0.02695 RLU/CFU; under “B35: RBS, SEQ ID NO: 105 (DNA TCCCGCATTTTAAAATAAAATAAATCATGTACTTAATTAAACGAAT; chemistry not fully specified)”, 0.005272 RLU/CFU; under “C11: RBS, SEQ ID NO: 36 (DNA TCCCGCATTTTAAAATAAAATAAATTATTTTTTTACTTAAACGAAT; chemistry not fully specified)”, 0.02223 RLU/CFU. Consider “C4: RBS, SEQ ID NO: 16 (DNA TCCCGCATTTTAAAATAAAATAAATTATTTATTTAGTTAAACGAAT; chemistry not fully specified)”, for which the “Average Luminescence (RLU/CFU)” value is on record as 0.03516 RLU/CFU.

Take “B33: RBS, SEQ ID NO: 97 (DNA TCCCGCATTTTAAAATAAAATAAATCATGTATTTAATTAAACGAAT; chemistry not fully specified)”: the “Average Luminescence (RLU/CFU)” value is reported as 0.006272 RLU/CFU.
